Measurements from patent US8338565B2, “Macrocyclic compounds for inhibition of tumor necrosis factor alpha” (Ensemble Therapeutics Corporation, priority 2008, dated 2012).
Like-named read-outs stand apart in the source and are kept apart here. Numbered stars: 1 amine (or outer) side, 2 acyl side, 3 side chain; on linkers, the order of the positions; unused ones are H or OH. Bridge positions count the residues as written; N and C are the ends. Square brackets hold non-standard residues; d marks the D form. Peptide text beside a SMILES is read from it. Phe(4-CF3) = N[C@@H](Cc1ccc(C(F)(F)F)cc1)C(=O)O; Bip = N[C@@H](Cc1ccc(-c2ccccc2)cc1)C(=O)O; dBip = N[C@H](Cc1ccc(-c2ccccc2)cc1)C(=O)O; dPhe(4-NH2) = Nc1ccc(C[C@@H](N)C(=O)O)cc1; Phe(4-Br) = N[C@@H](Cc1ccc(Br)cc1)C(=O)O; Phe(4-NH2) = Nc1ccc(C[C@H](N)C(=O)O)cc1; d(hPhe) = N[C@H](CCc1ccccc1)C(=O)O; d2Thi = N[C@H](Cc1cccs1)C(=O)O; Suc = O=C(CCC(=O)[*:2])[*:1]; Nphe = O=C(O)CNCc1ccccc1; Ac3c = NC1(C(=O)O)CC1; βAla = NCCC(=O)O

Experiments:
[1] = system: TNF-α (degradation of IkB in HeLa cells or A431 cells); assay: Human cell-based assay: inhibition of TNF-α induced degradation of IkB; details: for inhibition at 5 µM: read-out: Inhibition at Various Compound Concentrations, 5 μM; for inhibition at 10 µM: read-out: Inhibition at Various Compound Concentrations, 10 μM; for inhibition at 25 µM: 25 μM compound, read-out: Inhibition at Various Compound Concentrations, 25 μM
[2] = target: T1, TNFα / TNFα receptor (TNFα R1/Fc) (Homo sapiens, UniProt P01375); assay: Inhibition of binding of TNFα to the TNFα receptor (plate ELISA competition); details: Table 2
T1 construct: purchased R&D Systems
T1 sequence (P01375 77-233 limits assumed, species assumed): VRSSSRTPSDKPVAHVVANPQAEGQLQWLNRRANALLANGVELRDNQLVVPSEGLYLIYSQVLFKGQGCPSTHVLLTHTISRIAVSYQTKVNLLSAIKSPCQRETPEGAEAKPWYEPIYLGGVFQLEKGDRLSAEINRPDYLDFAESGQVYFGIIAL
Summary of the method: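 Plates were coated with TNFα at 15 nM. Test compound and 8.33 nM receptor-Fc (PBST, 2% DMSO) were first mixed in solution for 30 min at room temperature, then transferred to the plates for another 30 min. Competition was read by absorbance at 450 nm after HRP anti-human IgG Fc detection with TMB.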

[3] = 5 μM compound, HeLa or A431 cells
[4] = 10 μM compound, HeLa or A431 cells
[5] = read-out: Activity (IC50, inhibition of TNFα binding to TNFα R1/Fc)
[6] = Activity (IC50, inhibition of TNFα binding to TNFα R1/Fc)

Compound | inhibition at 5 µM [1, 3] [%] | inhibition at 10 µM [1, 4] [%] | IC50 [2, 5] [µM] | inhibition at 25 µM ([1]; HeLa or A431 cells) [%] | inhibition at 10 µM [1] [%] | IC50 [2, 6] [µM] | inhibition at 5 µM [1] [%]
O=C(O)CCNC(=O)[C@@H]1Cc2ccc(cc2)OCC(=O)N[C@H](Cc2cccs2)C(=O)N[C@@H](Cc2ccc(-c3ccccc3)cc2)C(=O)N[C@H](CCc2ccccc2)C(=O)N1 [Compound 301] | < 10 | < 10 | < 10 | – | – | – | –
O=C1CCC(=O)N[C@H](Cc2cccs2)C(=O)N[C@@H](Cc2ccc(-c3ccccc3)cc2)C(=O)N[C@H](Cc2ccccc2)C(=O)N[C@H](C(=O)O)Cc2ccc(cc2)N1 [Compound 1] ([d2Thi][Bip][dF][Phe(4-NH2)]-OH; linker N-4 via Suc) | – | – | 10 to 30 | 10 to 50 | – | – | –
COC(=O)[C@H](CC(=O)O)NC(=O)[C@@H]1Cc2ccc(cc2)OCC(=O)N[C@H](Cc2cccs2)C(=O)N[C@@H](Cc2ccc(-c3ccccc3)cc2)C(=O)N[C@H](CCc2ccccc2)C(=O)N1 [Compound 325] | – | < 10 | < 10 | – | – | – | –
O=C(O)CNC(=O)[C@@H]1Cc2ccc(cc2)NC(=O)CCC(=O)N[C@H](Cc2cccs2)C(=O)N[C@@H](Cc2ccc(-c3ccccc3)cc2)C(=O)N[C@H](Cc2ccccc2)C(=O)N1 [Compound 19] ([d2Thi][Bip][dF][Phe(4-NH2)]G-OH; linker N-4 via Suc) | – | – | 10 to 30 | < 10 | – | – | –
C[C@H](NC(=O)[C@@H]1Cc2ccc(cc2)NC(=O)CCC(=O)N[C@H](Cc2cccs2)C(=O)N[C@@H](Cc2ccc(-c3ccccc3)cc2)C(=O)N[C@H](Cc2ccccc2)C(=O)N1)C(=O)O [Compound 20] ([d2Thi][Bip][dF][Phe(4-NH2)]A-OH; linker N-4 via Suc) | – | – | < 10 | < 10 | – | – | –
O=C1CCC(=O)N[C@H](CCc2ccccc2)C(=O)N[C@@H](Cc2ccc(C(F)(F)F)cc2)C(=O)N[C@H](Cc2ccccc2)C(=O)N[C@H](C(=O)NC2(C(=O)O)CC2)Cc2ccc(cc2)N1 [Compound 18] ([d(hPhe)][Phe(4-CF3)][dF][Phe(4-NH2)][Ac3c]-OH; linker N-4 via Suc) | 50 to 80 | 10 to 50 | 10 to 30 | – | – | – | –
O=C(O)[C@@H]1Cc2ccc(cc2)NC(=O)[C@H](O)[C@@H](O)C(=O)N[C@H](Cc2ccccc2)C(=O)N[C@@H](Cc2ccc(-c3ccccc3)cc2)C(=O)N[C@H](Cc2ccccc2)C(=O)N1 [Compound 313] | < 10 | 10 to 50 | < 10 | – | – | – | –
O=C(O)[C@H](Cc1ccccc1)NC(=O)[C@@H]1Cc2ccc(cc2)NC(=O)[C@H](O)[C@@H](O)C(=O)N[C@H](Cc2ccc(F)c(F)c2)C(=O)N[C@@H](Cc2ccc(-c3ccccc3)cc2)C(=O)N[C@H](Cc2ccccc2)C(=O)N1 [Compound 282] | 50 to 80 | 10 to 50 | < 10 | – | – | – | –
O=C1CCC(=O)N[C@H](Cc2cccs2)C(=O)N[C@H](Cc2ccc(-c3ccccc3)cc2)C(=O)N[C@H](Cc2ccccc2)C(=O)N[C@H](C(=O)O)Cc2ccc(cc2)N1 [Compound 194] ([d2Thi][dBip][dF][Phe(4-NH2)]-OH; linker N-4 via Suc) | – | – | > 100 | < 10 | – | – | –
O=C1COc2ccc(cc2)C[C@@H](C(=O)N[C@@H](CCc2ccccc2)C(=O)O)NC(=O)[C@H](Cc2ccccc2)NC(=O)[C@H](Cc2ccc(-c3ccccc3)cc2)NC(=O)[C@H](Cc2cccs2)N1 [Compound 328] | – | – | – | – | 10 to 50 | < 10 | –
O=C(O)CCNC(=O)[C@@H]1Cc2ccc(cc2)NC(=O)CCC(=O)N[C@H](Cc2cccs2)C(=O)N[C@@H](Cc2ccc(-c3ccccc3)cc2)C(=O)N[C@H](Cc2ccccc2)C(=O)N1 [Compound 21] ([d2Thi][Bip][dF][Phe(4-NH2)][βAla]-OH; linker N-4 via Suc) | – | – | < 10 | < 10 | – | – | –
O=C1COc2ccc(cc2)C[C@@H](C(=O)NCCO)NC(=O)[C@H](Cc2ccccc2)NC(=O)[C@@H](Cc2ccc(-c3ccccc3)cc2)NC(=O)[C@H](Cc2cccs2)N1 [Compound 390] | – | – | – | – | 50 to 80 | < 10 | < 10
C[C@H](NC(=O)[C@@H]1Cc2ccc(cc2)OCC(=O)N[C@@H](Cc2cccs2)C(=O)N[C@H](Cc2ccc(-c3ccccc3)cc2)C(=O)N[C@@H](Cc2ccccc2)C(=O)N1)C(=O)O [Compound 385] | 50 to 80 | > 80 | < 10 | – | – | – | –
O=C1COc2ccc(cc2)C[C@@H](C(=O)N[C@@H](CCc2ccccc2)C(=O)O)NC(=O)[C@@H](CCc2ccccc2)NC(=O)[C@H](Cc2ccc(-c3ccccc3)cc2)NC(=O)[C@@H](Cc2cccs2)N1 [Compound 320] | – | – | – | – | > 80 | < 10 | 10 to 50
O=C(O)CCCNC(=O)[C@@H]1Cc2ccc(cc2)OCC(=O)N[C@H](Cc2cccs2)C(=O)N[C@@H](Cc2ccc(-c3ccccc3)cc2)C(=O)N[C@H](CCc2ccccc2)C(=O)N1 [Compound 298] | < 10 | < 10 | < 10 | – | – | – | –
CC(=O)NCCCC[C@@H]1NC(=O)[C@@H](Cc2ccc(-c3ccccc3)cc2)NC(=O)[C@H](Cc2cccs2)NC(=O)COc2ccc(cc2)C[C@@H](C(=O)O)NC1=O [Compound 369] | < 10 | < 10 | 10 to 30 | – | – | – | –
O=C(O)[C@@H]1Cc2ccc(cc2)NC(=O)[C@H](O)[C@@H](O)C(=O)N[C@H](Cc2ccsc2)C(=O)N[C@@H](Cc2ccc(-c3ccccc3)cc2)C(=O)N[C@H](Cc2ccccc2)C(=O)N1 [Compound 318] | < 10 | 10 to 50 | < 10 | – | – | – | –
O=C1CCC(=O)N[C@H](Cc2cccs2)C(=O)N[C@@H](Cc2ccc(Br)cc2)C(=O)N[C@H](Cc2ccccc2)C(=O)N[C@H](C(=O)N[C@@H](Cc2ccccc2)C(=O)O)Cc2ccc(cc2)N1 [Compound 201] ([d2Thi][Phe(4-Br)][dF][Phe(4-NH2)]F-OH; linker N-4 via Suc) | – | 10 to 50 | < 10 | – | – | – | –
O=C(O)[C@@H]1Cc2ccc(cc2)NC(=O)[C@H](O)[C@@H](O)C(=O)N[C@H](Cc2cccs2)C(=O)N[C@@H](Cc2ccc(-c3ccc(Cl)cc3)cc2)C(=O)N[C@H](Cc2ccccc2)C(=O)N1 [Compound 180] | < 10 | < 10 | < 10 | – | – | – | –
CC(C)[C@H](NC(=O)[C@@H]1Cc2ccc(cc2)NC(=O)CCC(=O)N[C@H](Cc2cccs2)C(=O)N[C@@H](Cc2ccc(-c3ccccc3)cc2)C(=O)N[C@H](Cc2ccccc2)C(=O)N1)C(=O)O [Compound 26] ([d2Thi][Bip][dF][Phe(4-NH2)]V-OH; linker N-4 via Suc) | – | – | 10 to 30 | 10 to 50 | – | – | –
O=C(O)CN(Cc1ccccc1)C(=O)[C@@H]1Cc2ccc(cc2)NC(=O)CCC(=O)N[C@H](Cc2cccs2)C(=O)N[C@@H](Cc2ccc(-c3ccccc3)cc2)C(=O)N[C@H](Cc2ccccc2)C(=O)N1 [Compound 36] ([d2Thi][Bip][dF][Phe(4-NH2)][Nphe]-OH; linker N-4 via Suc) | 10 to 50 | 50 to 80 | < 10 | < 10 | – | – | –
O=C(O)CCNC(=O)[C@@H]1Cc2ccc(cc2)OCC(=O)N[C@@H](Cc2cccs2)C(=O)N[C@H](Cc2ccc(-c3ccccc3)cc2)C(=O)N[C@@H](Cc2ccccc2)C(=O)N1 [Compound 319] | < 10 | < 10 | < 10 | – | – | – | –
O=C1CCC(=O)N[C@H](Cc2cccs2)C(=O)N[C@@H](Cc2ccc(-c3ccccc3)cc2)C(=O)N[C@H](Cc2ccccc2)C(=O)N[C@@H](C(=O)N[C@@H](Cc2ccccc2)C(=O)O)Cc2ccc(cc2)N1 [Compound 198] ([d2Thi][Bip][dF][dPhe(4-NH2)]F-OH; linker N-4 via Suc) | – | – | < 10 | 50 to 80 | – | – | –
NCCCC(=O)N[C@H]1CC(=O)N[C@H](Cc2cccs2)C(=O)N[C@@H](Cc2ccc(-c3ccccc3)cc2)C(=O)N[C@H](Cc2ccccc2)C(=O)N[C@H](C(=O)O)Cc2ccc(cc2)NC1=O [Compound 381] | < 10 | < 10 | < 10 | – | – | – | –
COC(=O)[C@H](CC(=O)O)NC(=O)[C@@H]1Cc2ccc(cc2)OCC(=O)N[C@@H](Cc2cccs2)C(=O)N[C@@H](Cc2ccc(-c3ccccc3)cc2)C(=O)N[C@@H](Cc2ccccc2)C(=O)N1 [Compound 327] | 10 to 50 | < 10 | < 10 | – | – | – | –
O=C1COc2ccc(cc2)C[C@@H](C(=O)O)NC(=O)[C@H](Cc2ccccc2)NC(=O)[C@H](Cc2ccc(-c3ccccc3)cc2)NC(=O)[C@H](Cc2cccs2)N1 [Compound 212] | – | – | < 10 | – | < 10 | – | < 10
O=C1COc2ccc(cc2)C[C@@H](C(=O)N[C@@H](Cc2ccccc2)C(=O)O)NC(=O)[C@@H](CCc2ccccc2)NC(=O)[C@H](Cc2ccc(-c3ccccc3)cc2)NC(=O)[C@@H](CCc2ccccc2)N1 [Compound 158] | – | – | – | – | 50 to 80 | < 10 | 50 to 80
O=C(O)[C@H](Cc1ccccc1)NC(=O)[C@@H]1Cc2ccc(cc2)NC(=O)[C@H](O)[C@@H](O)C(=O)N[C@H](Cc2cccs2)C(=O)N[C@@H](Cc2ccc(-c3ccccc3)cc2)C(=O)N[C@H](CCc2ccccc2)C(=O)N1 [Compound 350] | 10 to 50 | 10 to 50 | < 10 | – | – | – | –
O=C(O)CCNC(=O)[C@@H]1Cc2ccc(cc2)OCC(=O)N[C@@H](Cc2cccs2)C(=O)N[C@@H](Cc2ccc(-c3ccccc3)cc2)C(=O)N[C@@H](Cc2ccccc2)C(=O)N1 [Compound 339] | < 10 | 10 to 50 | < 10 | – | – | – | –
